Data on 16 molecules can be found in PubChem BioAssay (NCI).

Assay in all cases: NCI tumour cell line growth inhibition, 48 h
Experiment [1] concerns P388 leukemia.
The test system of experiment [2] is XF 498 CNS.
The subject of experiment [3] is SN12K1 renal.
Experiment [4] relates to P388/ADR leukemia.
Experiment [5] has as its system 786-0 renal.
Experiment [6] relates to M14 melanoma.
For experiment [7], the system named is MDA-N.
In experiment [8] the test system is LXFL 529 NSCLC.
For experiment [9], the system named is RXF-631 renal.

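A five-concentration, 48-hour dose response in 96-well plates underlies each endpoint, interpolated linearly between surrounding concentrations. The concentration for 50% growth inhibition is given as GI50. TGI denotes the concentration required for complete inhibition of growth.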

`CC(C)=CCC/C(C)=C/CCC1(C)C=Cc2c(c3ccccc3oc2=O)O1` (stereo not given): the TGI in experiment [1] is 52.6 µM; in experiment [2], 29.4 µM; in experiment [3], 30.7 µM; in experiment [4], above 62.6 µM.

Take `OC1COC(OCc2ccccc2)C(O)C1O` (stereo not given): the TGI in [5], in experiment [6] and in experiment [7] was above 100 µM throughout.

In the case of `C/C(=N\NC(=S)Nc1ccc([N+](=O)[O-])cc1)c1nc2ncccc2[nH]1`, the TGI in [5] was 11.6 µM; in experiment [6] it was 6.37 µM; in experiment [7], above 100 µM.

Regarding `O=C(O)CCCc1ccccc1`, the GI50 in experiment [6] is above 1000 µM. For the same molecule, the TGI in [6] and in experiment [7] was above 1000 µM throughout.

As for `Cc1cn(C2CC(O)C(Cn3nncc3Cn3ncc(=O)[nH]c3=O)O2)c(=O)[nH]c1=O` (stereo not given), the TGI in [6] and in experiment [7] was above 100 µM throughout.

Turning to `C=CCNC(=O)CN(CC(=O)OC)C1CCCCC1N(CC(=O)OC)CC(=O)OC` (stereo not given), the TGI in experiment [6] and in experiment [7] was above 100 µM in each case.

In the case of `O=C(O)C12CC3CC(C1)C2C=C3P(=O)(O)O` (stereo not given), the TGI in [6] and in [8] was above 100 µM each time.

With `COCCOCOC(C)(C)[C@H](CCO)O[Si](c1ccccc1)(c1ccccc1)C(C)(C)C`, the TGI was found to be 21.8 µM in experiment [6], 21.7 µM in [9], 13.5 µM in experiment [2] and 21.6 µM in experiment [8].

Take `O=C1c2ccccc2C(=O)c2c1cc1c(c2[N+](=O)[O-])OCO1`: in experiment [6], the GI50 was 3.78 µM and the TGI was found to be 16.9 µM.

In the case of `CC(C)=CC(=O)OC1C2C(C)=CC(O)C(O)C2(C)C2C3(O)OCC24C(CC(=O)OC14)C(C)C3O` (stereo not given), the TGI came out at 0.0201 µM in experiment [1], 0.587 µM in [2], 0.0909 µM in [3] and 7.09 µM in [4].

The molecule `COc1cc(/C=C/C2=C(C#N)C(=O)OC2(C)C)ccc1O` gave a TGI in experiment [9] above 100 µM.

As to `CCCCCCCCCCCCC(O)C(=O)O` (stereo not given), the TGI in experiment [5], in [6] and in [7] was above 100 µM each time.

As to `COc1cc(C(=O)C2CC3(CCC2(O)c2cc(OC)c(OC)c(OC)c2)CC(=O)Nc2ccccc2C3=O)cc(OC)c1OC` (stereo not given), the TGI in experiment [6] and in experiment [7] was above 100 µM each time.

Turning to `c1ccc2cc3c(cc2c1)OP1(Oc2cccc4cccnc24)(O3)Oc2cc3ccccc3cc2O1`, the TGI was found to be 4.57 µM in experiment [1], 9.98 µM in [2], 20.5 µM in [3] and 6.73 µM in [4].

On to `Nc1n[nH]c(CCCCCCCc2nc(N)n[nH]2)n1`, for which the TGI in experiment [6] and in experiment [8] was above 100 µM each time.

As for `Cc1c(C2=NN=C(N=Nc3c(O)cccc3O)/C2=C/c2ccccc2)c(=O)n(-c2ccccc2)n1C`, the TGI in experiment [1], in experiment [2], in experiment [3] and in experiment [4] was above 100 µM each time.
